Assay results as given in PubChem BioAssay AID179 (DTP/NCI, 2004).
“And” between values parts separate entries of the source, which are not always exact repeats. Identical values can stand only once. The source made the active and inactive calls.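 Rule for the calls: active = compounds giving half or more protection of infected cells from virus-caused growth loss, again on retest; inactive = the rest.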 Where a SMILES comes first, the peptide text is derived from it. [ ]: non-standard residue; d: D form. The star is where a group is joined. Boc = CC(C)(C)OC(=O)*; OBn = c1ccc(CO*)cc1; Ava = NCCCCC(=O)O; Mpa = O=C(O)CCS

Tested on: CEM cells HIV-1 protection, formazan growth assay
Assay: NCI AIDS Antiviral Assay
Settings: for IC50: measured here: growth of uninfected CEM cells
In short: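 Five concentrations of each compound were applied to infected and uninfected human CEM cells. Protection from HIV-1 was judged from growth measured with a soluble formazan assay.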

## CC1(C)C(=O)CCC(=O)C(C)(C)C2=CC=C(O2)C(C)(C)C(=O)CCC(=O)C(C)(C)C2=CC=C1O2
  outcome: inactive

## Cn1c([N+](=O)[O-])cnc1N1CCN(c2nncs2)C1=O
  EC50: > 200 µM
  IC50: > 200 µM

## N=C(N)C1CN(CCCCCCCCCCN2CC(C(=N)N)C(=O)NC2=O)C(=O)NC1=O (stereo not given)
  EC50: > 200 µM
  IC50: > 200 µM

## O=C1Nc2ccccc2C12OCCS2 (stereo not given)
  outcome: inactive

## Cc1ccc2ccc(-c3cc4ccccc4s3)nc2c1
  outcome: inactive

## CC(C)c1ccc(/C=C2\CSCC3=C2N=C2SCC(=O)N2C3c2ccc(C(C)C)cc2)cc1 (stereo not given)
  EC50: > 200 µM
  IC50: 107 µM

## COc1cc(/C=C(\C#N)C(=O)c2ccccc2)ccc1O
  EC50: > 646 µM
  IC50: 490 µM

## CON(C(=O)OC(C)(C)C)c1ccccc1
  EC50: 61.7 µM
  IC50: > 200 µM

## CCCCC1=C(C(=O)N2CCOCC2)C2(OCCO2)C1Cl (stereo not given)
  EC50: > 58.9 µM
  IC50: 10 µM

## COC(=O)N1CCc2c(nc(N(C)CCO)[nH]c2=O)C1
  EC50: > 891 µM
  IC50: 708 µM

## Nc1ccc2cc3ccc(N)cc3nc2c1
  EC50: > 200 µM
  IC50: 1.12 µM and 0.692 µM

## Cc1ccc(C2(c3ccccc3)OC3OC=CC32)cc1 (stereo not given)
  EC50: > 200 µM
  IC50: 70.8 µM

## Nn1c(=O)n(Cc2ccccc2)n(-c2ccccc2)c1=O
  outcome: inactive

## O=C(O)CC(NC(=O)/C(=C/c1ccccc1)NC(=O)c1ccccc1)C(=O)O (stereo not given)
  EC50: > 200 µM
  IC50: > 200 µM

## CC(NC(=O)CCS)C(=O)NC(C)C(=O)NC(Cc1c[nH]c2ccccc12)C(=O)NC(Cc1c[nH]cn1)C(=O)NC(CO)C(=O)NC(Cc1c[nH]c2ccccc12)C(=O)NCCCCC(=O)NC(C)C(=O)NC(CCC(N)=O)C(=O)NC(CCCCN)C(=O)NC(C)C(=O)NC(CCCNC(=N)N)C(=O)NC(CCCCN)C(N)=O (stereo not given) ([Mpa]AAWHSW[Ava]AQKARK-NH2; configuration not given here)
  EC50: > 20 µM
  IC50: > 20 µM

## CC1CC(C2=CC=CCS2)=Nc2ccccc2S1 (stereo not given)
  EC50: > 55 µM
  IC50: 53.7 µM

## Clc1nc(NC2CCCCC2)nc(NC2CCCCC2)n1
  outcome: inactive

## CN(C(=O)c1cccs1)C(=S)N1CCN(c2ccccn2)CC1
  EC50: > 195 µM
  IC50: 110 µM

## C=C1C(=O)C23OC2C1CCC(=O)C1(C)CC[C@H](OC(C)=O)C(C)(C)[C@H]1CC3=O (stereo not given in full)
  EC50: > 174 µM
  IC50: 2.29 µM

## Cn1c(=O)c2nc3n(c2n(C)c1=O)C(=O)C(C#N)N=N3 (stereo not given)
  EC50: > 200 µM
  IC50: > 200 µM

## COc1cc(N(CCC#N)CCC#N)ccc1/C(N=Nc1ccccc1)=N/NC(=O)c1cc(Br)ccc1O
  EC50: > 100 µM
  IC50: 17.8 µM

## O=C1C(Cl)C(c2ccccc2)N1n1cnc2ccccc2c1=O (stereo not given)
  EC50: > 79.4 µM
  IC50: > 79.4 µM

## NC(Cc1c2ccccc2cc2ccccc12)C(=O)O (stereo not given)
  EC50: > 200 µM
  IC50: 102 µM

## COc1ccc(NC(=O)CCc2cc(-c3ccc(O)c(OC)c3)nc(NC#N)n2)cc1
  EC50: > 224 µM
  IC50: > 224 µM

## C[N+]1(CCCl)CCc2cccc([N+](=O)[O-])c2C1 (stereo not given)
  EC50: > 200 µM
  IC50: 97.7 µM

## CC(=O)OC12c3ccccc3C1CCCCCC21OCCCO1 (stereo not given)
  EC50: > 200 µM
  IC50: > 200 µM

## CC(CN)OC12CC3CC(CC(C3)C1)C2 (stereo not given)
  EC50: > 200 µM
  IC50: 105 µM

## Nc1ccc2cc(S(=O)(=O)O)c(N=Nc3ccc(-c4ccc(N=Nc5c(S(=O)(=O)O)cc6cc(S(=O)(=O)O)c(N=Nc7cccc([N+](=O)[O-])c7)c(N)c6c5O)cc4)cc3)c(O)c2c1
  outcome: active

## c1ccc(C2SCC3COCN32)cc1 (stereo not given)
  EC50: > 240 µM
  IC50: > 240 µM

## O=S(=O)(O)C(Cc1nc2ccccc2[nH]1)S(=O)(=O)OCCC1S(=O)(=O)OCCOS1(=O)=O (stereo not given)
  EC50: > 200 µM
  IC50: 107 µM

## COc1ccc(OC)c(C(O)C(C)NC(C)(C)C)c1 (stereo not given)
  EC50: > 200 µM
  IC50: > 200 µM

## C1CCC(N2OC23CCCCC3)CC1 (stereo not given)
  outcome: inactive

## CC(C)=CCOc1cc(O)c2c(c1)C(=O)c1cc(C)cc(O)c1C2=O
  EC50: > 50.1 µM
  IC50: > 50.1 µM

## CC(C)CC(NC(=O)C(Cc1ccc(O)cc1)NC(=O)C(CO)NC(=O)C(N)CCC(=O)O)C(=O)NCC(=O)O (stereo not given) (H-ESYLG-OH; configuration not given here)
  outcome: inactive

## CN1C=CC(C(C(N)=O)c2ccccc2)c2ccccc21 (stereo not given)
  EC50: > 200 µM
  IC50: 178 µM

## CC(=O)NNc1nc(C)c(C(=O)/C=C/c2ccccc2Cl)s1
  EC50: > 77.6 µM
  IC50: 58.9 µM

## CN(C)Cc1cc(C(=O)/C=C/c2ccc(Br)cc2)cc(CN(C)C)c1O
  EC50: > 200 µM
  IC50: 4.47 µM

## CC(=O)Oc1ccccc1/C=C/C(=O)/C=C/c1ccccc1OC(C)=O
  EC50: > 20 µM
  IC50: 2.14 µM

## C=CC1CN2CCC1CC2C(O)c1ccnc2ccc(OC)cc12 (stereo not given)
  EC50: > 200 µM
  IC50: > 100 µM

## CC(NC(=O)CNC(=O)OC(C)(C)C)C(=O)NC(Cc1ccccc1)C(=O)OCc1ccccc1 (stereo not drawn) (Boc-Gly-Ala-Phe-OBn; configuration not given here)
  EC50: > 200 µM
  IC50: 77.6 µM

## Cc1cc2nc(N)n[n+]([O-])c2cc1C
  EC50: > 200 µM
  IC50: > 200 µM

## Cc1cc(=O)[nH]c(NN2C(Cl)C(=O)C2c2ccco2)n1 (stereo not given)
  EC50: > 17.8 µM
  IC50: > 17.8 µM

## CCN(CC)C(=Nc1ccc(Cl)c(Cl)c1)SC(NC=O)=C(Cl)Cl
  EC50: > 200 µM
  IC50: 19.5 µM

## CC1CNC(c2ccc(NC(=O)Nc3cc(C(=O)Nc4ccc(C5=NC(C)CN5)cc4)ccc3C(=O)Nc3ccc(C4=NC(C)CN4)cc3)cc2)=N1 (stereo not given)
  EC50: > 100 µM
  IC50: > 100 µM

## CC/C(=C\c1ccc(OC)cc1)c1ccc(OC)cc1
  EC50: > 200 µM
  IC50: > 200 µM

## C=CCCCCCCCCC(=O)NCCN1CCOCC1
  EC50: > 200 µM
  IC50: > 200 µM

## COC1=CC(=O)c2nc(COC(C)=O)ccc2C1=O
  outcome: inactive

## CC1=C(c2ccccc2)NC(=S)C(C)C(c2ccccc2)=N1 (stereo not given)
  EC50: > 200 µM
  IC50: 28.2 µM

## CC1=NN(c2nc(N)nc(C/C(N)=N/O)n2)C(C)(C)C1
  EC50: > 200 µM
  IC50: > 200 µM

## COc1ccc(C2C3=C(COC3=O)OC(C)(C)Oc3cc4c(cc32)OCO4)cc1OC (stereo not given)
  EC50: > 200 µM
  IC50: 12.3 µM

## CCOP(=O)(OCC)C(C(=O)OC)C(=O)C(=O)Nc1cccc(O)c1 (stereo not given)
  EC50: > 676 µM
  IC50: > 676 µM

## O=C1NC2CCCCCC2C12CCCCC2 (stereo not given)
  outcome: inactive

## CCC/C(=N/OC(=O)N(C)C)c1ccccc1
  EC50: > 200 µM
  IC50: 135 µM

## COc1ccccc1/C=C/C(=O)/C=C/c1ccccc1O
  EC50: > 79.4 µM
  IC50: 1.15 µM

## COc1ccc(N=NC(=O)NC(Cc2ccccc2)C(=O)O)cc1 (stereo not given)
  EC50: > 200 µM
  IC50: 20 µM

## Nc1ncnc2c1ncn2[C@H]1C(CO)[C@@H](CO)C12SCCCS2 (stereo not given in full)
  EC50: > 191 µM
  IC50: > 191 µM

## CC1=N/C(=C\c2ccccc2)C(=O)O1
  EC50: > 20 µM
  IC50: > 20 µM

## O=NNc1ccc(Sc2ccc(NN=O)cn2)nc1
  EC50: > 100 µM
  IC50: > 100 µM

## Nc1ccc(S(=O)(=O)S(=O)(=O)c2ccc(N)cc2)cc1
  EC50: > 200 µM
  IC50: 112 µM

## CN1CC(C(=O)C2C(=O)c3ccccc3C2=O)C(=O)C(=O)C(C(=O)C2C(=O)c3ccccc3C2=O)C1 (stereo not given)
  outcome: inactive

## CC(C)(C)c1ccc(Oc2ccc3c(c2)-c2nc-3nc3[nH]c(nc4nc(nc5[nH]c(n2)c2ccc(Oc6ccc(C(C)(C)C)cc6C(C)(C)C)cc52)-c2cc(Oc5ccc(C(C)(C)C)cc5C(C)(C)C)ccc2-4)c2ccc(Oc4ccc(C(C)(C)C)cc4C(C)(C)C)cc32)c(C(C)(C)C)c1
  EC50: > 9.77 µM
  IC50: > 9.77 µM

## O=C1c2cccc3cc([N+](=O)[O-])cc(c23)C(=O)N1C(Cc1ccccc1)c1ccccc1 (stereo not given)
  EC50: > 200 µM
  IC50: 105 µM

## O=C(Cc1csc(N=Nc2c(O)[nH]c3ccccc23)n1)Nc1ccccc1
  EC50: > 200 µM
  IC50: 112 µM

## CC(/C=C/C(=O)c1sc(C(N)=S)nc1C)=C\c1ccccc1
  EC50: > 79.4 µM
  IC50: > 79.4 µM

## CCc1cc2c(cc1C(=O)CCC(=O)O)CC1(C2)Cc2cc(CC)c(C(=O)CCC(=O)O)cc2C1
  EC50: > 200 µM
  IC50: 107 µM

## Oc1cc(O)cc(-c2c(O)cc(O)cc2O)c1
  EC50: > 200 µM
  IC50: 145 µM

## CN(C)N1C(=C(C#N)C#N)C(c2ccccc2)CC1C#N (stereo not given)
  EC50: > 200 µM
  IC50: > 200 µM

## CC1=CC(O)CC(C)(C)C1/C=C/C(C)=C/C=C/C(C)=C/C=C/C=C(C)/C=C/C=C(C)/C=C/C1=C(C)CC(O)CC1(C)C (stereo not given)
  EC50: > 200 µM
  IC50: 33.9 µM

## Cc1nc(NCCNCCO)nc2c1C(=O)Nc1ccccc1N2
  EC50: > 200 µM
  IC50: 32.4 µM

## COC1/C=C\C=C(/C)C(=O)NC2=CC(=O)C(N)=C(CC(C)CC(OC)C(O)C(C)C=C(C)C1OC(N)=O)C2=O (stereo not given)
  EC50: > 2 µM
  IC50: 0.0661 µM

## Nc1n[n+]([O-])c2ccc(Cl)cc2[n+]1[O-]
  EC50: > 200 µM
  IC50: 3.55 µM

## Cc1c(CCCl)c(Cl)n2c(nc3ccccc32)c1C#N
  EC50: > 33.9 µM
  IC50: 0.537 µM

## COc1cc(/C=C/C(=O)c2cc(Cl)cc(Cl)c2O)cc(OC)c1OC
  EC50: > 200 µM
  IC50: 2.04 µM

## O=[N+]([O-])c1ccc2c(c1)/C(=N/N=C1c3ccccc3Cc3ccccc31)c1cc([N+](=O)[O-])cc([N+](=O)[O-])c1-2
  outcome: inactive

## COC(OC)[C@@H]1OC[C@H](n2ccc(=O)[nH]c2=O)[C@H]1O
  EC50: > 200 µM
  IC50: > 200 µM

## CCN1OC(C)(C)C2CCC(C)CC21 (stereo not given)
  EC50: > 1260 µM
  IC50: > 1260 µM

## CCOC(=O)c1ccc(CS(=O)(=O)c2ccc(Cl)cc2)cc1
  EC50: > 55 µM
  IC50: > 55 µM

## O=C(CC1(O)C(=O)N(CN2CCCCC2)c2ccccc21)c1ccccc1 (stereo not given)
  EC50: > 200 µM
  IC50: 97.7 µM

## CCOc1ccc(OCC)c([P+](c2ccccc2)(c2ccccc2)c2ccccc2)c1
  outcome: inactive

## O=S(=O)(O)C(O)CCCC(O)S(=O)(=O)O (stereo not given)
  EC50: > 200 µM
  IC50: 10.7 µM

## CC(=O)c1cccc(NCn2nnc3ccccc32)c1
  EC50: > 200 µM
  IC50: 95.5 µM

## CCOC(=O)C1CCCc2sc(N)c(C#N)c21 (stereo not given)
  EC50: > 200 µM
  IC50: > 200 µM

## N=C1/C(=C/c2ccco2)C(=O)N=C2SC=NN12
  EC50: > 200 µM
  IC50: > 200 µM

## O=[N+]([O-])c1ccc(S(=O)(=O)NN=C2CCCCC2)cc1
  EC50: > 316 µM
  IC50: 178 µM
